In patent US7241787B2, “Substituted N-cycloexylimidazolinones, process for their preparation and their use as medicaments” (Sanofi-Aventis Deutschland GmbH, priority 2004, dated 2007):

Target: T1, human MCH receptor (Homo sapiens, UniProt Q99705)
T1 construct: expressed in transfected cells
Experiment: Functional measurements of cellular calcium flux (FLIPR) to determine IC50 values
Type: cell-based
Conditions: recombinant HEK293 cell line expressing the human MCH receptor, calcium flux after addition of agonist (MCH) in presence of ligand
Excerpt: Functional measurements to determine IC50 values
Cloning of the cDNA for the human MCH receptor, preparation of a recombinant HEK293 cell line which expresses the human MCH receptor, and functional measurements with the recombinant cell line took place in analogy to the description by Audinot et al. (J. Biol. Chem. 276, 13554–13562, 2001). A difference from the reference was, however, the use of the plasmid pEAK8 from EDGE Biosystems (USA) for the construction of the expression vector. The host used for the transfection was a transformed HEK cell line named “PEAK Stable Cells” (likewise from EDGE Biosystems). Functional measurements of the cellular calcium flux after addition of agonist (MCH) in the presence of ligand of the invention took place with the aid of the FLIPR apparatus from Molecular Devices (USA), using protocols of the apparatus manufacturer.

T1 sequence (Q99705 whole entry): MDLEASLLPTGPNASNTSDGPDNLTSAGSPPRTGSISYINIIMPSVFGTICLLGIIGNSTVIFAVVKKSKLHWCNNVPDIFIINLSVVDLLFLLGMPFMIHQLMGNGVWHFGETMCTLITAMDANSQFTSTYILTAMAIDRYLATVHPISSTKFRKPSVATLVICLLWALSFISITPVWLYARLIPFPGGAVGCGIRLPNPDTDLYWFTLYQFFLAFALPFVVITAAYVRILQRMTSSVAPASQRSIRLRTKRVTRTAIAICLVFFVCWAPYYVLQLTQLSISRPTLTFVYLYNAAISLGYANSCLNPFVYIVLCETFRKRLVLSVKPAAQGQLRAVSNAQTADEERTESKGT

| SMILES | IC50 [µM] |
| --- | --- |
| CC(=O)N[C@@H]1CCN(C2CCC(n3ccn(-c4ccc(Oc5ccccc5)cc4)c3=O)CC2)C1 (stereo partly drawn) [Example 1, (R)-N-(1-{4-[2-oxo-3-(4-phenoxyphenyl)-2,3-dihydroimidazol-1-yl]cyclohexyl}pyrrolidin-3-yl)acetamide] | 0.01 to 2 |
| CN(C)CCO[C@H]1CC[C@H](n2ccn(-c3ccc(OC4CCCC4)cc3)c2=O)CC1 [Example 2, Trans-1-(4-cyclopentyloxy-phenyl)-3-[4-(2-dimethylaminoethoxy)cyclohexyl]-1,3-dihydroimidazol-2-one] | 0.01 to 2 |
| O=c1n(-c2ccc(Oc3ccccc3)cc2)ccn1C1CCC(N2CCN(CCO)CC2)CC1 (stereo not shown) [Example 3] | 2 to 10 |
| O=c1n(-c2ccc(Oc3ccccc3)cc2)ccn1C1CCC(NC2CN3CCC2CC3)CC1 (stereo not shown) [Example 6] | 2 to 10 |

Continued, values first:

| IC50 [µM] | SMILES |
| --- | --- |
| 0.01 to 2 | O=c1n(-c2ccc(Oc3ccccc3)cc2)ccn1C1CCC(N2CCNCC2)CC1 (stereo not shown) [Example 5] |
| 0.01 to 2 | O=c1n(-c2ccc(Oc3ccccc3)cc2)ccn1C1CCC(N2CCCNCC2)CC1 (stereo not shown) [Example 8] |
| 2 to 10 | CN1CCN(C2CCC(n3ccn(-c4ccc(Oc5ccccc5)cc4)c3=O)CC2)CC1 (stereo not shown) [Example 9] |
